Source: patent US9556191B2, “Aminoquinazoline derivatives and their salts and methods of use thereof” (SUNSHINE LAKE PHARMA CO., LTD, priority 2013, dated 2017)

Legend:
[1] = molecular target: EGFR (human epidermal growth factor receptor) (Homo sapiens (Human), UniProt P00533); test: In vitro kinase inhibitory activity, EGFR; format: biochemical
Experimental: (§1) Stop buffer was prepared from 100 mM HEPES, pH 7.5, 0.015% Brij-35, 0.2% Coating Reagent #3, and 50 mM EDTA.
(§2) Kinase reaction was performed according to the following procedures: (1) 2.5× kinase solution was prepared by adding kinase into 1× kinase base buffer; (2) 2.5× peptide solution was prepared by adding FAM-labeled peptide and ATP into 1× kinase base buffer; (3) 2.5× kinase solution (10 μL) was added to each well of the 384-well assay plate containing 5 μL of compound in 10% DMSO and then the assay plate was incubated at room temperature for 10 minutes; (4) 2.5× peptide solution (10 μL) was added to each well of the 384-well assay plate; and (5) stop buffer (25 μL) was added to stop the kinase reaction after incubation at 28° C. for a specified period of time.
(§3) Multifunctional microplate reader (BMG LABTECH, PHER Astar FS) with a 320 nm excitation wavelength was used to read and collected the data of by absorbing light at […], which was converted from the rate of 665 signal/620 signal.
(§4) Conversion data were copied, and then converted to inhibition values with the following formula: percent inhibition=(max−conversion)/(max−min)*100 where “max” stands for the DMSO control value, “conversion” stands for the sample value and “[…]” stands for the no-kinase control value. The data were fitted in XLfit to obtain IC50 values.

[2] = molecular target: HER2 (human epidermal growth factor receptor 2) (Homo sapiens (Human), UniProt P04626); test: In vitro kinase inhibitory activity, HER-2; format: biochemical
Chain of HER2 (human epidermal growth factor receptor 2) (P04626 23-1255): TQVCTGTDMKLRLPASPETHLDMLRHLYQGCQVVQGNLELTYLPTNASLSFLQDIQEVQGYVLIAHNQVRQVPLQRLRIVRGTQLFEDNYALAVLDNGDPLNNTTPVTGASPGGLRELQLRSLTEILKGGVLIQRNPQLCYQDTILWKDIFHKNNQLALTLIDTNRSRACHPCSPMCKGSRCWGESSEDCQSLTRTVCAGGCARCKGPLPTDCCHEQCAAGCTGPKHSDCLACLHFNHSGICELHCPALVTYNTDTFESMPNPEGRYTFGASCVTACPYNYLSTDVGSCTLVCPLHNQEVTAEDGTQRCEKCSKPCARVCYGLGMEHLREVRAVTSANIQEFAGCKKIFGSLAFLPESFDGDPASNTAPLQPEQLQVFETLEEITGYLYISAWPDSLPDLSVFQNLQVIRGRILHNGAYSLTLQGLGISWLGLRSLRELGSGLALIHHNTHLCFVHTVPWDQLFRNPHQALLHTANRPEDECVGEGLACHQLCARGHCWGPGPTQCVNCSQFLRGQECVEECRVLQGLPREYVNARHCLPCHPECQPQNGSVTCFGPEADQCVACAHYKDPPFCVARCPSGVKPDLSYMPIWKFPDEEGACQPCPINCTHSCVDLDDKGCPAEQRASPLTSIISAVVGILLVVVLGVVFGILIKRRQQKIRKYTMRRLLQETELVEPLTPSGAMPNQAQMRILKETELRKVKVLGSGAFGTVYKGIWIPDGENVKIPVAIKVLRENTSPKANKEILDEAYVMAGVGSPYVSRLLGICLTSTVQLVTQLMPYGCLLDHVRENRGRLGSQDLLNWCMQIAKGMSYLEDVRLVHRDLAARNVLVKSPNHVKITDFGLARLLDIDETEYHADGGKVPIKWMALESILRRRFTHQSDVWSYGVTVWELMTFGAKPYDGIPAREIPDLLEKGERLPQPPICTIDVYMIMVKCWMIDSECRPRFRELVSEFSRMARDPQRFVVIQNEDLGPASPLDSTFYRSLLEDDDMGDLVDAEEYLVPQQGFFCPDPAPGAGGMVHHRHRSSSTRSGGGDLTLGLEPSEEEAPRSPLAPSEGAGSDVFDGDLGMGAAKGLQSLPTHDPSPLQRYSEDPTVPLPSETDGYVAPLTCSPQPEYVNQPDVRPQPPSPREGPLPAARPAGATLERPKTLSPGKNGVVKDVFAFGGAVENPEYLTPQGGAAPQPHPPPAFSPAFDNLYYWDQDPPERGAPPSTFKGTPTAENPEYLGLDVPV
Experimental: as §1
as §2, with “time. […]” for “time.”
as §4

[3] = molecular target: EGFR T790M (human epidermal growth factor receptor T790M mutation) (Homo sapiens (Human), UniProt P00533, T790M); test: In vitro kinase inhibitory activity, EGFR T790M; format: biochemical
Chain of EGFR T790M (human epidermal growth factor receptor T790M mutation) (P00533 25-1210 T790M): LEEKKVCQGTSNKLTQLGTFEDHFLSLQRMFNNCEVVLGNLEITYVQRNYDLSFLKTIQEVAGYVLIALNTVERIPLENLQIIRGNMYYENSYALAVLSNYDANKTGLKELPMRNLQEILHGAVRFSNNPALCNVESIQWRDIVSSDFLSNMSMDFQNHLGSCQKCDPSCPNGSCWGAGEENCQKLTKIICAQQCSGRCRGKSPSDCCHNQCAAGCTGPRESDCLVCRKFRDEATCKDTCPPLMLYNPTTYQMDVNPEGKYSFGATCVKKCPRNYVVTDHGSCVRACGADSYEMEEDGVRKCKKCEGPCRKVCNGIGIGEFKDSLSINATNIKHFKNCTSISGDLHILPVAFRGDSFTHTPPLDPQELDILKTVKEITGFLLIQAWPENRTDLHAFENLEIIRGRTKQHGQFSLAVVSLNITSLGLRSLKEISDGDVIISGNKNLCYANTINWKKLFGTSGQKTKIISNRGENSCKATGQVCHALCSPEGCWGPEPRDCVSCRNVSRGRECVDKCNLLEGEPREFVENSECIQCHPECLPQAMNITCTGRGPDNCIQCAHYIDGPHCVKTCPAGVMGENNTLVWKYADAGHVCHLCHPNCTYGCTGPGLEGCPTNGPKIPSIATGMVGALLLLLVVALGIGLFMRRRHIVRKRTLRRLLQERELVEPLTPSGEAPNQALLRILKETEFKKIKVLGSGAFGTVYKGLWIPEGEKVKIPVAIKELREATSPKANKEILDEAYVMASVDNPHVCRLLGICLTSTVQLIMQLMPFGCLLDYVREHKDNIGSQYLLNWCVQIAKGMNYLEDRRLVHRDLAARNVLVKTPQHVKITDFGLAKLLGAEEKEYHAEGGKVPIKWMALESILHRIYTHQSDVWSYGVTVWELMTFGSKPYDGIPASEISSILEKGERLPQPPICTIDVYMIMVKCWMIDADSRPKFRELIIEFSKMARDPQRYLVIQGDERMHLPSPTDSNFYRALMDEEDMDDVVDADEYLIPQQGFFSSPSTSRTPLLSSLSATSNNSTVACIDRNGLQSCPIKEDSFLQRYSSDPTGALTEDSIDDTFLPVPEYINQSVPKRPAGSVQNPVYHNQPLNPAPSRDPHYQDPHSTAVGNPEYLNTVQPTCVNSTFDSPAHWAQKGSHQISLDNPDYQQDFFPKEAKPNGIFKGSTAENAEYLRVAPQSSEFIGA
Experimental: as §1, §2, §3, §4

[4] = Rat PK (pharmacokinetics after iv and po administration); format: in vivo; details: male, SD, plasma; for Vd: read-out: Vss; for bioavailability: po 5 vs iv 2 (g/kg [sic]; mg/kg in method), read-out: F (bioavailability)
Excerpt: Materials used include Propranolol (internal standard), methyl alcohol, ammonium acetate, K2EDTA (potassium ethylenediaminetetraacetate), methane acid, acetonitrile, MTBE (methyl tert-butyl ether), Cremophor EL (polyoxyethylated castor oil), KolliphorHS 15 (polyethylene glycol 12-hydroxystearate), DMSO (dimethylsulfoxide), PEG400 (polyethylene glycol 400) and SD rat (male, 180-220 g, 7-8 weeks old, purchased from Hunan Slack King of Laboratory Animal Co., Ltd.), all of which are commercially available.
Each test compound prepared in above examples was completely dissolved in a mixture of 5% DMSO, 5% KolliphorHS 15 and 90% saline.
(1) The test sample stock solution was prepared by dissolving an accurately weighed test sample in DMSO followed by dilution to the concentration of 1 mg/mL with acetonitrile. The stock solution was stored under the condition of −20° C. for later use.
(2) Internal standard solution was prepared by diluting a certain amount of the Propranolol stock solution in the concentration of 1 mg/mL to 100 ng/mL with water.
Samples treated with liquid-liquid extraction and chromatographic separation were analyzed by triple quadrupole tandem mass spectrometer in multiple reaction monitoring (MRM) mode for quantitative analysis.
Pretreatment of plasma sample was performed according to the following procedures: (1) plasma sample (30 μL) was precisely measured, and internal standard (250 μL) was then added to the plasma sample which was then mixed by vortexing; (2) the sample was extracted once with 1 mL of MTBE and then centrifuged at 13000 rpm for 2 minutes at 4° C.; (3) supernatant (800 μL) was aspirated and dried with 96 holes nitrogen gas blowing; (4) the residue was dissolved with 150 μL of a mixture of methanol and water (v/v=1/1) and then mixed by vortexing; and (5) sampling: sample quantity was 8 μL.
Preparation of standard sample was performed according to the following procedures: (1) a pre-determined amount of the compound stock solution was precisely measured, and then was diluted to standard series of solution with acetonitrile; (2) each of the standard solution (20 μL) prepared above was precisely measured and to each was added 180 μL of blank plasma; (3) each sample was mixed by vortexing to obtain series of standard samples in which the plasma concentration was 3, 5, 10, 30, 100, 300, 1000, 3000, 5000 or 10000 ng/mL; and (4) standard curve was established.
The content of each test compound in rat plasma after administration was determined by LC/MS/MS.
Noncompartmental analysis to calculate pharmacokinetic parameters was performed with WinNonlin 6.1 software.

[5] = iv(2 g/kg) [sic], method says 2 mg/kg
[6] = po(5 g/kg) [sic], method says 5 mg/kg

Chain of EGFR (human epidermal growth factor receptor) (P00533 25-1210): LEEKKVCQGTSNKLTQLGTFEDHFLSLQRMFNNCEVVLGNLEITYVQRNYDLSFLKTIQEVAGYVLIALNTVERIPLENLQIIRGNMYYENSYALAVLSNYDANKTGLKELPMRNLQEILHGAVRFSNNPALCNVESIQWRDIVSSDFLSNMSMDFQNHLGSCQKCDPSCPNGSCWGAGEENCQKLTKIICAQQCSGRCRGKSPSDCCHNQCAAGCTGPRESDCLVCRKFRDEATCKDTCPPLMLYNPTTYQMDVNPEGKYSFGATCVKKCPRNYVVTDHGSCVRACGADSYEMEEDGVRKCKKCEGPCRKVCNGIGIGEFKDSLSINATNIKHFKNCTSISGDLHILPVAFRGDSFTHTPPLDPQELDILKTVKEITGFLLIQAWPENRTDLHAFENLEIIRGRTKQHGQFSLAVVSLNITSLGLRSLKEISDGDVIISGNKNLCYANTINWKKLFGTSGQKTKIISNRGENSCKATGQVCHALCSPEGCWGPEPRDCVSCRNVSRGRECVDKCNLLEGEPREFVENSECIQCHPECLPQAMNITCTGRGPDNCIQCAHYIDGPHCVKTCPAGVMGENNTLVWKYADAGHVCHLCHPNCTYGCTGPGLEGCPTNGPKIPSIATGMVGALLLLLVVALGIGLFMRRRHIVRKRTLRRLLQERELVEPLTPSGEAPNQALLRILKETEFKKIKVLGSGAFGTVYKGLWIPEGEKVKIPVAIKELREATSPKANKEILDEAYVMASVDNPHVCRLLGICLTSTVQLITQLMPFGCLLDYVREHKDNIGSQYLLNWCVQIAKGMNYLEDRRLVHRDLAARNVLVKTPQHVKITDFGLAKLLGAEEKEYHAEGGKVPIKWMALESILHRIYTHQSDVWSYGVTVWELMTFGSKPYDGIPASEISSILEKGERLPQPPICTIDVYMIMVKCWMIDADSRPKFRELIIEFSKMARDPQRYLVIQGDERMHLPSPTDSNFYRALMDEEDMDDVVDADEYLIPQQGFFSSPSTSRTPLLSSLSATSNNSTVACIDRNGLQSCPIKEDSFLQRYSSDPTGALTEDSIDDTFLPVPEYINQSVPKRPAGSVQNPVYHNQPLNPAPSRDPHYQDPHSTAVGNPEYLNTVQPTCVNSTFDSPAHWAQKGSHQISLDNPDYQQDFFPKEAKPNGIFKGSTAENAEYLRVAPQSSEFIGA

SMILES | IC50 [1] [nM] | IC50 [2] [nM] | IC50 [3] [nM] | AUC(0-t) [4, 5] [ng·h/mL] | Cmax [4, 5] [ng/mL] | half-life [4, 5] [h] | Vd [4, 5] [L/kg] | AUC(0-t) [4, 6] [ng·h/mL] | Cmax [4, 6] [ng/mL] | half-life [4, 6] [h] | bioavailability [4] [%]
CCOc1cc2ncnc(Nc3ccc(F)c(Cl)c3)c2cc1NC(=O)/C=C/CN1C[C@@H]2OCCO[C@@H]2C1 [Example 3, (E)-N-(4-((3-Chloro-4-fluorophenyl)amino)-7-ethoxyquinazolin-6-yl)-4-((4aR,7aS)-tetrahydro-2H-[1,4]dioxin[2,3-c]pyrrol-6(3H)-yl)but-2-enamide] | 6.4 | 8.1 | 6.2 |  |  |  |  |  |  |  | 
O=C(/C=C/CN1C[C@@H]2OCCO[C@@H]2C1)Nc1cc2c(Nc3ccc(F)c(Cl)c3)ncnc2cc1O[C@H]1CCOC1 [Example 5, (E)-N-(4-((3-Chloro-4-fluorophenyl)amino)-7-(((S)-tetrahydrofuran-3-yl)oxy)quinazolin-6-yl)-4-((4aR,7aS)-tetrahydro-2H-[1,4]dioxino[2,3-c]pyrrol-6(3H)-yl)but-2-enamide] | 3.6 | 11.7 | 6.8 |  |  |  |  |  |  |  | 
COCCOc1cc2ncnc(Nc3ccc(F)c(Cl)c3)c2cc1NC(=O)/C=C/CN1C[C@@H]2OCCO[C@@H]2C1 [Example 6, (E)-N-(4-((3-Chloro-4-fluorophenyl)amino)-7-(2-methoxyethoxy)quinazolin-6-yl)-4-((4aR,7aS)-tetrahydro-2H-[1,4]dioxino[2,3-c]pyrrol-6(3H)-yl)but-2-enamide] | 1.8 | 10.4 | 8.7 |  |  |  |  |  |  |  | 
O=C(/C=C/CN1C[C@@H]2OCCO[C@@H]2C1)Nc1cc2c(Nc3ccc(F)c(Cl)c3)ncnc2cc1OCC(F)(F)F [Example 7, (E)-N-(4-((3-Chloro-4-fluorophenyl)amino)-7-(2,2,2-trifluoroethoxy)quinazolin-6-yl)-4-((4aR,7aS)-tetrahydro-2H-[1,4]dioxino[2,3-c]pyrrol-6(3H)-yl)but-2-enamide] | 15.4 | 44 | 22.6 |  |  |  |  |  |  |  | 
[2H]C([2H])([2H])Oc1cc2ncnc(Nc3ccc(F)c(Cl)c3)c2cc1NC(=O)/C=C/CN1C[C@@H]2OCCO[C@@H]2C1 [Example 20, (E)-N-(4-((3-Chloro-4-fluorophenyl)amino)-7-(methoxy-D3)quinazolin-6-yl)-4-((4aR,7aS)-tetrahydro 2H-[1,4]dioxino[2,3-c]pyrrol-6(3H)-yl)but-2-enamide] |  |  |  | 1450 | 868 | 2.22 | 3.71 | 3190 | 336 | 3.6 | 
O=C(/C=C/CN1C[C@@H]2OCCO[C@@H]2C1)Nc1ccc2ncnc(Nc3ccc(OCc4cccc(F)c4)c(Cl)c3)c2c1 [Example 21, (E)-N-(4-((3-Chloro-4-((3-fluorobenzyl)oxy)phenyl)amino)quinazolin-6-yl)-4-((4aR,7aS)-tetrahydro-2H-[1,4]dioxino[2,3-c]pyrrol-6(3H)-yl)but-2-enamide] | 15 | 3.5 | 317 |  |  |  |  |  |  |  | 
O=C(/C=C/CN1C[C@@H]2OCCO[C@@H]2C1)Nc1ccc2ncnc(Nc3ccc(OCc4ccccn4)c(Cl)c3)c2c1 [Example 22, (E)-N-(4-((3-Chloro-4-(pyridin-2-ylmethoxy)phenyl)amino)quinazolin-6-yl)-4-((4aR,7aS)-tetrahydro-2H-[1,4]dioxino[2,3-c]pyrrol-6(3H)-yl)but-2-enamide] | 22 | 1.9 | 47.3 |  |  |  |  |  |  |  | 
COc1cc2ncnc(Nc3ccc(OCc4ccccn4)c(Cl)c3)c2cc1NC(=O)/C=C/CN1C[C@@H]2OCCO[C@@H]2C1 [Example 23, (E)-N-(4-((3-Chloro-4-(pyridin-2-ylmethoxy)phenyl)amino)-7-methoxyquinazolin-6-yl)-4-((4 aR,7aS)tetrahydro-2H-[1,4]dioxino[2,3-c]pyrrol-6(3H)-yl)but-2-enamide] | 60.4 | 1.8 | 8.5 | 7560 | 2770 | 3.06 | 0.88 | 13900 | 1930 | 2.77 | 73.5
O=C(/C=C/CN1C[C@@H]2OCCO[C@@H]2C1)Nc1ccc2ncnc(Nc3ccc4c(cnn4Cc4cccc(F)c4)c3)c2c1 [Example 26, (E)-N-(4-((1-(3-Fluorobenzyl)-1H-indazol-5-yl)amino)quinazolin-6-yl)-4-((4aR,7aS)-tetrahydro-2H-[1,4]dioxin[2,3-c]pyrrol-6(3H)-yl)but-2-enamide] | 14 | 1.6 | 89.3 |  |  |  |  |  |  |  | 
COc1cc2ncnc(Nc3ccc(OCc4cccc(F)c4)c(Cl)c3)c2cc1NC(=O)/C=C/CN1C[C@@H]2OCCO[C@@H]2C1 [Example 29, (E)-N-(4-((3-Chloro-4-((3-fluorobenzyl)oxy)phenyl)amino)-7-methoxyquinazolin-6-yl)-4-((4aR,7aS)-tetrahydro-2H-[1,4]dioxino[2,3-c]pyrrol-6(3H)-yl)but-2-enamide] |  | 3.7 |  |  |  |  |  |  |  |  | 
CCOc1cc2ncnc(Nc3ccc(OCc4cccc(F)c4)c(Cl)c3)c2cc1NC(=O)/C=C/CN1C[C@@H]2OCCO[C@@H]2C1 [Example 30, (E)-N-(4-((3-Chloro-4-((3-fluorobenzyl)oxy)phenyl)amino)-7-ethoxyquinazolin-6-yl)-4-((4aR,7aS)-tetrahydro-2H-[1,4]dioxino[2,3-c]pyrrol-6(3H)-yl)but-2-enamide] | 31.9 | 6.6 | 133 |  |  |  |  |  |  |  | 
COCCOc1cc2ncnc(Nc3ccc(Cl)c(Cl)c3F)c2cc1NC(=O)/C=C/CN1C[C@@H]2OCCO[C@@H]2C1 [Example 33, (E)-N-(4-((3,4-Dichloro-2-fluorophenyl)amino)-7-(2-methoxyethoxy)quinazolin-6-yl)-4-((4aR,7aS)-tetrahydro-2H-[1,4]dioxino[2,3-c]pyrrol-6(3H)-yl)but-2-enamide] |  | 9.6 |  | 1250 | 890 | 1.29 | 2.77 | 1370 | 346 | 1.27 | 44.5
COc1cc2ncnc(Nc3ccc(F)c(Cl)c3F)c2cc1NC(=O)/C=C/CN1C[C@@H]2OCCO[C@@H]2C1 [Example 35, (E)-N-(4-((3-Chloro-2,4-difluorophenyl)amino)-7-methoxyquinazolin-6-yl)-4-((4aR,7aS)-tetrahydro-2H-[1,4]dioxino[2,3-c]pyrrol-6(3H)-yl)but-2-enamide] | 0.9 | 17.8 | 20 |  |  |  |  |  |  |  | 
